Laboratory results as given in patent US7229630B2, “Stabilized formulations of alpha adrenergic receptor antagonists and the uses thereof” (Novalar Pharmaceuticals, Inc., priority 2002, dated 2007).
Where a name gives a salt, the structure may show the parent alone.

Key:
[1] = Effect of buffer concentration on stability at 60° C. (HPLC, pH); assay type: physicochemical; settings: for pH: 60° C.
Method: The drug is monitored at a detection wavelength of 232 nm.
Tightly sealed glass vials containing the test solutions were placed in an oven at 40° C. or 60° C. All samples were stored in the dark. Aliquots were removed at designated time points for HPLC analysis and pH measurement. All samples were analyzed without dilution.
In conjunction with HPLC analysis, pH was measured. The measurement was performed using the same samples as used for the HPLC analysis. The pH meter was calibrated using pH 4.00 and 7.00 buffer standards prior to each measurement.
Samples were incubated at 60° C. with scheduled testing performed at day 0, 2, 7, and 14. The various buffer concentrations were prepared by diluting the 50 mM buffer with water and re-examining the pH value to determine if the pH 3.5 was constant. Measurements of pH were performed after HPLC analysis of the samples.

[2] = test system: human subjects; experiment: Reversal of local anesthesia (polocaine with levonordefrin) by LARA vs saline, bilateral injection; assay type: in vivo; settings: three subjects, 1.6 ml of 0.05 mg/ml phentolamine mesylate
Method: An injection of the physiological saline vehicle (without phentolamine mesylate) served as the control. […] This was followed by injection of the phentolamine mesylate containing local anesthetic reversal agent (LARA) into one side of the oral cavity, and injection of the saline vehicle (control) solution into the opposite side of the oral cavity. The time to reversal of the local anesthetic effect on both sides was then recorded to determine whether there is a difference between the two sides.
The local anesthetic used was 2% polocaine (mepivacaine hydrochloride) with levonordefrin (1:20,000=0.05 mg/ml) (levonordefrin injection, USP) (Astra USA, Inc., Westborough, Mass. 01581). Levonordefrin is a sympathomimetic amine with a pharmacological profile similar to that of epinephrine, but with a lower potency.
Three healthy, male human subjects, age 34–50, volunteered to have local anesthetic injected in the mouth bilaterally under the lip in an easily repeatable location. The exact time of each injection was recorded. The position chosen was above (apical) the prominence of the root of the upper cuspid teeth. This is a common site selected to numb the cuspids, lateral incisors and upper lip. The volume of the local anesthetic injected was 1.7+0.1 ml on each side of the mouth. […]

[3] = 0 mM sodium acetate (un-buffered) pH 3.5, 60° C., Day 0
[4] = 0 mM sodium acetate (un-buffered) pH 3.5, 60° C., Day 2
[5] = 0 mM sodium acetate (un-buffered) pH 3.5, 60° C., Day 7
[6] = 0 mM sodium acetate (un-buffered) pH 3.5, 60° C., Day 14
[7] = 5 mM sodium acetate pH 3.5, 60° C., Day 0
[8] = 5 mM sodium acetate pH 3.5, 60° C., Day 2
[9] = 5 mM sodium acetate pH 3.5, 60° C., Day 7
[10] = 5 mM sodium acetate pH 3.5, 60° C., Day 14
[11] = 10 mM sodium acetate pH 3.5, 60° C., Day 0
[12] = 10 mM sodium acetate pH 3.5, 60° C., Day 2
[13] = 10 mM sodium acetate pH 3.5, 60° C., Day 7
[14] = 10 mM sodium acetate pH 3.5, 60° C., Day 14
[15] = 50 mM sodium acetate pH 3.5, 60° C., Day 7
[16] = 50 mM sodium acetate pH 3.5, 60° C., Day 14

## Cc1ccc(N(CC2=NCCN2)c2cccc(O)c2)cc1 [Phentolamine Mesylate, phentolamine mesylate]
[1]; [3]
  Phentolamine Concentration: 90 µg/mL
  Phentolamine Purity: 99 % peak area
[1]; [4]
  Phentolamine Concentration: 92 µg/mL
  Phentolamine Purity: 99 % peak area
[1]; [5]
  Phentolamine Concentration: 82 µg/mL
  Phentolamine Purity: 98 % peak area
[1]; [6]
  Phentolamine Concentration: 77 µg/mL
  Phentolamine Purity: 97 % peak area
[1]; 0 mM sodium acetate (un-buffered), Day 0
  pH: 3.6
[1]; 0 mM sodium acetate (un-buffered), Day 2
  pH: 4.4
[1]; 0 mM sodium acetate (un-buffered), Day 7
  pH: 5.1
[1]; 0 mM sodium acetate (un-buffered), Day 14
  pH: 5.3
[1]; [7]
  Phentolamine Concentration: 99 µg/mL
  Phentolamine Purity: 99 % peak area
[1]; [8]
  Phentolamine Concentration: 97 µg/mL
  Phentolamine Purity: 99 % peak area
[1]; [9]
  Phentolamine Concentration: 94 µg/mL
  Phentolamine Purity: 98 % peak area
[1]; [10]
  Phentolamine Concentration: 92 µg/mL
  Phentolamine Purity: 98 % peak area
[1]; 5 mM sodium acetate, Day 0
  pH: 3.5
[1]; 5 mM sodium acetate, Day 2
  pH: 3.8
[1]; 5 mM sodium acetate, Day 7
  pH: 3.8
[1]; 5 mM sodium acetate, Day 14
  pH: 3.8
[1]; [11]
  Phentolamine Concentration: 100 µg/mL
  Phentolamine Purity: 99 % peak area
[1]; [12]
  Phentolamine Concentration: 97 µg/mL
  Phentolamine Purity: 99 % peak area
[1]; [13]
  Phentolamine Concentration: 96 µg/mL
  Phentolamine Purity: 98 % peak area
[1]; [14]
  Phentolamine Concentration: 92 µg/mL
  Phentolamine Purity: 98 % peak area
[1]; 10 mM sodium acetate, Day 0
  pH: 3.5
[1]; 10 mM sodium acetate, Day 2
  pH: 3.7
[1]; 10 mM sodium acetate, Day 7
  pH: 3.8
[1]; 10 mM sodium acetate, Day 14
  pH: 3.7
[1]; 50 mM sodium acetate pH 3.5, 60° C., Day 0
  Phentolamine Purity: 98 % peak area
[1]; 50 mM sodium acetate pH 3.5, 60° C., Day 2
  Phentolamine Purity: 98 % peak area
[1]; [15]
  Phentolamine Concentration: 99 µg/mL
  Phentolamine Purity: 98 % peak area
[1]; [16]
  Phentolamine Concentration: 96 µg/mL
  Phentolamine Purity: 96 % peak area
[1]; 50 mM sodium acetate, Day 0
  pH: 3.5
[1]; 50 mM sodium acetate, Day 2
  pH: 3.6
[1]; 50 mM sodium acetate, Day 7
  pH: 3.6
[1]; 50 mM sodium acetate, Day 14
  pH: 3.6
[1]; 5, 10 and 50 mM sodium acetate, pH 3.5, 60° C.
  rate of degradation vs un-buffered control (0 mM): comparable and was an improvement over the un-buffered control
[2]
  side-effects: no side-effects of any kind were noted
